Laboratory results: BindingDB's records for doi:10.1016/0014-2999(93)90722-t (Sanofi Recherche, 1993)
pKi: −log10 of the molar value. Several values for one entry are separate records, joined by “and”; a condition that tells them apart may be missing. Equal values may be shown once. Where a SMILES comes first, the peptide text is derived from it. [ ]: non-standard residue; d: D form. sY = N[C@@H](Cc1ccc(OS(=O)(=O)O)cc1)C(=O)O

Tests used:
[1] = molecular target: T1, Gastrin/cholecystokinin type B receptor (Rattus norvegicus, UniProt P30553)
T1 sequence (P30553 whole entry): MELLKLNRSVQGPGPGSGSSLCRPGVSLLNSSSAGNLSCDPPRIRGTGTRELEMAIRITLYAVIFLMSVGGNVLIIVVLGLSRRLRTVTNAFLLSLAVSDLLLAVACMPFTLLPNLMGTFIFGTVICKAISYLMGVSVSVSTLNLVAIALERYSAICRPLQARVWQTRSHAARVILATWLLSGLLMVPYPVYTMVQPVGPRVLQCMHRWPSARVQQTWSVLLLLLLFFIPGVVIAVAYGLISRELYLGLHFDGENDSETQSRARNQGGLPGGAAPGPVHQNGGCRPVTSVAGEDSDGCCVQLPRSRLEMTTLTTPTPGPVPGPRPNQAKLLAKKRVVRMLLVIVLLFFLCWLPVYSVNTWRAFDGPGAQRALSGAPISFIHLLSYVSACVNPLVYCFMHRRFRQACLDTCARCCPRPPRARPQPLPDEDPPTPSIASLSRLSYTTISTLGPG

pKi [1] | pKi | SMILES
9.24 | 6.31 and 5.54 | O=C(O)Cn1c(C(=O)Nc2nc(-c3ccccc3Cl)cs2)cc2ccccc21 [CAS_122077]
– | 7.62 | CSCC[C@H](NC(=O)[C@H](CC(C)C)NC(=O)[C@H](Cc1cnc[nH]1)NC(=O)CNC(=O)[C@@H](NC(=O)[C@H](C)NC(=O)[C@H](Cc1c[nH]c2ccccc12)NC(=O)[C@H](Cc1cnc[nH]1)NC(=O)[C@H](CC(N)=O)NC(=O)CN)C(C)C)C(N)=O [NSC_5486814]
– | 9.21 | CC[C@H](C)[C@H](NC(=O)[C@H](CCCNC(=N)N)NC(=O)[C@H](Cc1c[nH]cn1)NC(=O)[C@H](CO)NC(=O)[C@@H]1CCCN1C(=O)[C@H](CC(=O)O)NC(=O)[C@H](CC(C)C)NC(=O)[C@H](CC(N)=O)NC(=O)[C@H](CCC(N)=O)NC(=O)[C@H](CC(C)C)NC(=O)[C@H](CC(N)=O)NC(=O)[C@H](CCCCN)NC(=O)[C@@H](NC(=O)[C@@H](NC(=O)[C@H](CO)NC(=O)[C@H](CCSC)NC(=O)[C@H](CCCNC(=N)N)NC(=O)CNC(=O)[C@H](CO)NC(=O)[C@@H]1CCCN1C(=O)[C@H](C)NC(=O)[C@@H](N)CCCCN)[C@@H](C)CC)C(C)C)C(=O)N[C@@H](CO)C(=O)N[C@@H](CC(=O)O)C(=O)N[C@@H](CCCNC(=N)N)C(=O)N[C@@H](CC(=O)O)C(=O)N[C@@H](Cc1ccc(OS(=O)(=O)O)cc1)C(=O)N[C@@H](CCSC)C(=O)NCC(=O)N[C@@H](Cc1c[nH]c2ccccc12)C(=O)N[C@@H](CCSC)C(=O)N[C@@H](CC(=O)O)C(=O)N[C@@H](Cc1ccccc1)C(N)=O [CHOLECYSTOKININ] (H-KAPSGRMSIVKNLQNLDPSHRISDRD[sY]MGWMDF-NH2)

SMILES | pKi [1] | pKi
CN1C(=O)[C@@H](NC(=O)c2cc3ccccc3[nH]2)N=C(c2ccccc2)c2ccccc21 [1H-Indole-2-carboxylic acid (1-methyl-2-oxo-5-phenyl-2,3-dihydro-1H-benzo[e][1,4]diazepin-3-yl)-amide: 0.1C4H10O. 0.15CH2Cl2] | – | 6.56 and 6.71
